Data published in patent US9428501B2, “Bicyclic nitrogen-containing aromatic heterocyclic amide compound” (ASTELLAS PHARMA INC., priority 2013, dated 2016).
Like-named read-outs stand apart in the source and are kept apart here.

Experiments:
AMPK = test: Evaluation of AMPK activation effect (phosphorylation of ACC Ser79, Cell ELISA in MDA-MB-453 cells); assay type: cell-based, human; details: 2 hours
Experimental: By measuring phosphorylation of 79th serine (Ser79) of Acetyl-CoA Carboxylase (ACC) which is a substrate of AMPK with Cell ELISA, the AMPK activation effect by the test compound was evaluated.
In order to make MDA-MB-453 cell become 15000 cells per well, each 36 μl was seeded in Leibovitz's L-15 medium including 10% fetal bovine serum (manufactured by Life Technologies Corp.) in a 384 well plate, followed by culturing at 37° C. overnight in the absence of CO2. […] After the incubation, 20 μl of a 40% glyoxal solution (Nacalai Tesque) was added to each well, and then cells were fixed by leaving to stand at room temperature for 30 minutes. Thereafter, the supernatant was removed by centrifuging the plate, and then 0.1% Triton X-100-containing Phosphate-Buffered Saline (PBS) was added to each well by 20 followed by incubating at room temperature for 10 minutes. The 0.1% Triton X-100-containing PBS was removed by centrifuging for 8 seconds at 800 rpm (all solution removal operation by centrifuge described below were carried out under the same conditions), and then a blocking solution (ODYSSEY Blocking Buffer; manufactured by Li—COR Biosciences) was added to each well by 20 μl, followed by leaving to stand at room temperature for 1 hour. The blocking solution was removed by centrifuging, with the exception of the blocking solution by centrifugation, and then a blocking solution which was diluted such that the amount of phosphorylation antibody (manufactured by Cell Signaling Technology, Inc) of ACC Ser79 as a primary antibody is 1/500 was added to each well by 10 followed by leaving to stand at 4° C. overnight. The following day, the reaction liquid was removed by centrifuging the plate, and then 0.05% Tween-20-containing Tris-Buffered Saline (TBS) (manufacture by Thermo Scientific Inc.; used in 1× in which 20×TBS Tween-20 was diluted with ion-exchange water) was added to each well by 25 followed by washing each well by centrifugal removal. The washing of each well was repeated for a total of 3 times. After washing, a blocking solution which was diluted such that the amount of IRDye 800CW Goat anti-Rabbit IgG (manufactured by Li—CoR Biosciences) as a secondary antibody is 1/1000 was added to each well by 10 μl, followed by leaving to stand at room temperature for 1 hour. After the secondary antibody reaction, the reaction liquid was removed by centrifuging the plate, and then each well was washed three times with 0.05% Tween-20-containing TBS in the same manner as after the primary antibody reaction. After the washing solution was removed, without change, the plate was air-dried at room temperature for 3 hours or longer and signals were measured by Aerius (manufactured by Li—CoR Biosciences).

[1] = tested on: human PIK3CA mutation-positive breast cancer cell line MDA-MB-453 cells; test: Scaffold independent cell proliferation inhibitory effect, MDA-MB-453 cells; assay type: cell-based; details: non-adhesive plate, 4 days, CellTiter-Glo, read-out: IC50 (cell proliferation inhibition)
Experimental: The effect on proliferation of cancer cells of the test compound was evaluated.
Measurement (colony method) of the scaffold independent cell proliferation is known as a system in which the anti-cancer effect of the test compound is examined. As a method for measuring cell-non-adhesive proliferation substituting the colony method, there is a method of using a non-adhesive plate as follows.
Thereafter, the cells were cultured for 4 days at 37° C. in the absence of CO2, and a cytometric reagent (CellTiter-Glo Luminescent Cell Viability assay manufactured by Promega Corporation) was added. The resultant product was stirred for 30 minutes, and then measurement was carried out using a luminescence measurement apparatus (ARVO manufactured by Perkin Elmer Inc.).

[2] = target: human mitochondrial Complex I (Homo sapiens, UniProt O75251+O75306+P03886); assay type: biochemical
Experimental: Mitochondria was extracted from MDA-MB-453 tumor, and the Complex I inhibitory activity of the test compound was evaluated.
Human PIK3CA mutation-positive breast cancer cell line MDA-MB-453 cells were subcutaneously implanted into nude mice, MDA-MB-453 tumor was excised, a mitochondria extraction solution (0.25 M Sucrose, 2 mM EDTA, 10 mM Tris/HCl pH 7.5) of 9 times of tumor weight was added thereto, and crushing was carried out thereon. The reaction mixture was centrifuged at 600×g and 4° C. for 10 minutes to obtain a supernatant, and the supernatant was centrifuged at 14000×g and 4° C. for 10 minutes, thereby obtaining a pellet. The pellet was suspended in 10 mM Tris/HCl pH 7.5 of 5 times of the excised tumor weight, thereby obtaining a human mitochondrial suspension.
Next, 25 μl of the human mitochondrial suspension per 1 ml of Complex I activity measurement solution (200 mM potassium phosphate pH 7.6, 0.35% Bovine Serum Albumin (BSA), 60 μM 2,6-dichlorophenol-indophenol, 70 μM decylubiquinone, 1 μM antimycin) was added. After dispensed into a 96 or 384-well plate, a test compound (from 10000 nM to 0.3 nM) and DMSO which is a solvent for the test compound as a negative control were added such that a final concentration of Rotenone which is a Complex I inhibitor as a positive control becomes 1 μM. Further, NADH was added so as to have a final concentration of 0.2 mM, and a change in absorbance at a wavelength of 600 nm using SpectraMax (manufactured by Molecular Devices LLC) set to 37° C. in advance was measured. […] Moreover, in the Table, Ex indicates Example No. (the same shall apply hereinafter.).

MDA-MB-453 cells = test: Anti-tumor effect in MDA-MB-453 cell cancer-bearing mouse; assay type: in vivo; details: oral, once a day for 15 days, Balb/c nude mouse
Experimental: 3×10^6 cells of MDA-MB-453 cells which were suspended with PBS were subcutaneously injected to be planted in the back of a 5 to 6 weeks old male Balb/c nude mouse (provided by Charles River Laboratories, Japan). 10 days after planting, the test compound was administered. The test was carried out on respective five mice of the solvent group and the test compound administered group, and 6% aqueous cyclodextrin solution was administered to the solvent group, and a mixture of 6% aqueous cyclodextrin solution and the test compound (1 or 3 mg/kg) was orally administered to the test compound administered group. Administration was carried out once a day for 15 days, and body weight and tumor size were measured approximately every other day. The following equation was used to calculate the tumor volume.

[3] = mitochondria from MDA-MB-453 tumor, absorbance 600 nm, 37° C.; read-out: IC50 (Complex I inhibition)

human mitochondrial Complex I, sequence (O75251 39-213 limits assumed): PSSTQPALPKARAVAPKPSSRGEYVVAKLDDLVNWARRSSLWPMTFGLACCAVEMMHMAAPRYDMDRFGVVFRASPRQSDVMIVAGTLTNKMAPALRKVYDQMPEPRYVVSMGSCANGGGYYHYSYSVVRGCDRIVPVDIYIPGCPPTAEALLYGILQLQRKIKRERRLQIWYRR
human mitochondrial Complex I, sequence (O75306 34-463 limits assumed): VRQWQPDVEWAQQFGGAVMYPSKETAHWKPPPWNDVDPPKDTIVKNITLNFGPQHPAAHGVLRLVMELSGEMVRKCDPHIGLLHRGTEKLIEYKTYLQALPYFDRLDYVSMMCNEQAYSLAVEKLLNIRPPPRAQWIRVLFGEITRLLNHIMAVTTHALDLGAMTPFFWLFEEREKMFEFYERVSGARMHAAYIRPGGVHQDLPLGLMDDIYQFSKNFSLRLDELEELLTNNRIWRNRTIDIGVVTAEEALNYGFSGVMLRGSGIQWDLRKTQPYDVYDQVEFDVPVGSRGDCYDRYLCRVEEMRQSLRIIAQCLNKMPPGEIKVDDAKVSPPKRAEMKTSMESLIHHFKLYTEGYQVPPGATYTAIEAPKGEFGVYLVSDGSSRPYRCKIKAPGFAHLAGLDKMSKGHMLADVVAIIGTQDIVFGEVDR
human mitochondrial Complex I, sequence (P03886 whole entry): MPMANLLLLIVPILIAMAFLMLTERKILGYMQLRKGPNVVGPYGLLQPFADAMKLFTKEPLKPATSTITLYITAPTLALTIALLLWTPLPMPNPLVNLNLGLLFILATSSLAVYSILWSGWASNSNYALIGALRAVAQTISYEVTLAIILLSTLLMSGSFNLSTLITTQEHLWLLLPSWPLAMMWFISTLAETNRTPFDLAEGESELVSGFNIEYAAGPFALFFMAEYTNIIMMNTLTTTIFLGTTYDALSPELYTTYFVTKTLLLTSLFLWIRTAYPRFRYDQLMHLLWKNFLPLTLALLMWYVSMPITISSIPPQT

Row | Structure (SMILES) | EC50 (AMPK) [µM] | IC50 ([1]; Homo sapiens, 96 h) [µM] | IC50 [2, 3] [µM] | also measured
1 | COc1ccc(CN2CCC(n3cc4cc(C(=O)N5CCN(Cc6ccc(C(F)(F)F)cc6)CC5)ccc4n3)CC2)cn1 [Example 57] | 0.0018 |  |  | 
2 | COc1cnc(CN2CCC(c3ccn4nc(C(=O)N5CCN(Cc6ccc(C(F)(F)F)cc6)CC5)cc4c3)CC2)cn1 [Example 50] | 0.014 | 0.004 |  | 
3 | COc1cnc(CN2CCC(c3ccc4[nH]c(C(=O)N5CCN(Cc6ccc(C(F)(F)F)cc6)CC5)nc4c3)CC2)cn1 [Example 7, (5-{1-[(5-methoxypyrazin-2-yl)methyl]piperidin-4-yl}-1H-benzimidazol-2-yl){4-[4-(trifluoromethyl)benzyl]piperazin-1-yl}methanone ditosylate] |  | 0.012 | 0.075 | Anti-tumor effect, regression rate (MDA-MB-453 cells; 3 mg/kg): 49% regression
4 | CCOc1cnc(CN2CCC(c3ccc4c(c3)cc(C(=O)N3CCN(Cc5ccc(C#N)cc5)CC3)n4C)CC2)cn1 [Example 66] | 0.0028 | 0.0062 | 0.12 | Anti-tumor effect, regression rate (MDA-MB-453 cells; 1 mg/kg): 91% regression
5 | CCOc1cnc(CN2CCC(n3cc4cc(C(=O)N5CCN(Cc6ccc(C(F)(F)F)cc6)CC5)ccc4n3)CC2)cn1 [Example 58] | 0.00086 | 0.00055 |  | 
6 | COc1ccc(CN2CCC(c3cc4cc(C(=O)N5CCN(Cc6ccc(C(F)(F)F)cc6)CC5)n(C)c4cn3)CC2)cn1 [Example 44] | 0.0052 | 0.0042 | 0.087 | 
7 | CCOc1cnc(CN2CCC(c3ccc4cc(C(=O)N5CCN(Cc6ccc(C#N)cc6)CC5)n(C)c4c3)CC2)cn1 [Example 69] |  | 0.0032 | 0.022 | Anti-tumor effect, regression rate (MDA-MB-453 cells; 1 mg/kg): 87% regression
8 | COc1ccc(CN2CCC(c3ccn4cc(C(=O)N5CCN(Cc6ccc(C(F)(F)F)cc6)CC5)nc4c3)CC2)cn1 [Example 36, (7-{1-[(6-methoxypyridin-3-yl)methyl]piperidin-4-yl}imidazo[1,2-a]pyridin-2-yl){4-[4-(trifluoromethyl)benzyl]piperazin-1-yl}methanone ditosylate] | 0.0051 | 0.011 | 0.055 | Anti-tumor effect, regression rate (MDA-MB-453 cells; 3 mg/kg): 10% regression
9 | Cc1cnc(CN2CCC(c3ccc4nc(C(=O)N5CCN(Cc6ccc(C(F)(F)F)cc6)CC5)[nH]c4c3)CC2)cn1.Cl.Cl.Cl [Example 8, (6-{1-[(5-methylpyrazin-2-yl)methyl]piperidin-4-yl}-1H-benzimidazol-2-yl){4-[4-(trifluoromethyl)benzyl]piperazin-1-yl}methanone trihydrochloride] | 0.013 | 0.026 |  | Anti-tumor effect, inhibition rate (MDA-MB-453 cells; 3 mg/kg): 88% inhibition; IC50 ([2]; read-out: IC50 (Complex I inhibition); mitochondria from MDA-MB-453 tumor, absorbance 600 nm, 37° C.): 0.083 µM
10 | COc1ccc(CN2CCC(c3ccc4nc(C(=O)N5CCN(Cc6ccc(C(F)(F)F)cc6)CC5)cn4c3)CC2)cn1 [Example 35] | 0.0036 |  |  | 
11 | COc1cnc(CN2CCC(c3ccc4c(c3)cc(C(=O)N3CCN(Cc5ccc(C#N)cc5)CC3)n4C)CC2)cn1 [Ex 79] | 0.0033 |  | 0.12 | Anti-tumor effect, regression rate (MDA-MB-453 cells; 1 mg/kg): 43% regression; IC50 [1]: 0.0078 µM
12 | COc1ccc(CN2CCC(c3ccc4[nH]c(C(=O)N5CCN(Cc6ccc(C(F)(F)F)cc6)CC5)nc4c3)CC2)cn1 [Example 1, (5-{1-[(6-methoxypyridin-3-yl)methyl]piperidin-4-yl}-1H-benzimidazol-2-yl){4-[4-(trifluoromethyl)benzyl]piperazin-1-yl}methanone ditosylate] |  |  |  | Anti-tumor effect, regression rate (MDA-MB-453 cells; 3 mg/kg): 26% regression
13 | COc1ccc(CN2CCC(c3ccn4nc(C(=O)N5CCN(Cc6ccc(C(F)(F)F)cc6)CC5)cc4c3)CC2)cn1 [Example 49] | 0.0065 | 0.0028 | 0.018 | 

The next lines start with results.

Row | EC50 (AMPK) [µM] | IC50 ([1]; Homo sapiens, 96 h) [µM] | Structure (SMILES) | IC50 [2, 3] [µM] | also measured
14 | 0.019 | 0.04 | COc1ccc(CN2CCC(c3ccc4nc(C(=O)N5CCN(Cc6ccc(C#N)cc6)CC5)[nH]c4c3)CC2)cn1 [Example 23] | 0.16 | 
15 | 0.01 | 0.0085 | COc1ccc(CN2CCC(c3ccc4c(c3)nc(C(=O)N3CCN(Cc5ccc(C(F)(F)F)cc5)CC3)n4C)CC2)cn1 [Example 19] |  | 
16 | 0.003 |  | COc1ccc(CN2CCC(c3ccc4nc(C(=O)N5CCN(Cc6ccc(C(F)(F)F)cc6)CC5)n(C)c4c3)CC2)cn1 [Example 18] |  | 
17 | 0.01 | 0.0089 | COc1ccc(CN2CCC(c3ccc4nc(C(=O)N5CCN(Cc6ccc7c(c6)OC(F)(F)O7)CC5)[nH]c4c3)CC2)cn1 [Example 37] | 0.029 | 
18 | 0.034 | 0.0076 | COc1ccc(CN2CCC(c3ccc4nc(C(=O)N5CCN(Cc6ccc(C(F)(F)F)cc6)CC5)[nH]c4c3)CC2)cc1 [Example 14] |  | 
19 | 0.013 | 0.0081 | COc1ccc(CN2CCC(c3ccc4nc(C(=O)N5CCN(Cc6ccc(C(F)(F)F)cc6F)CC5)[nH]c4c3)CC2)cn1 [Example 38] | 0.059 | 
